For this experiment, the system named is rats. The experiment is described as follows: Open field test of locomotor activity with or without cocaine. In kind it is in vivo, rat. The settings on record: dosed 1 hour before 5-minute open field test. As to the method: Rats were dosed either with vehicle or with cocaine in the presence or absence of Compound 1 (0.1 mg/kg. sc). One hour after dosing (i.p. & s.c.), rats were put in a open field, where distance moved and zones crossed were recorded by the ethovision program.
Animals were brought to the lab room 1 hour before the start of the experiment. Rats were injected with compound(s) 1 hour before being placed in the open field. Rats were then placed in open field, and the test lasted for five minutes.

This is an account of results in US20060258711A1, “Treatment of drug abuse” (Wyeth, priority 2005, published 2006).

Each structure is given as a SMILES string.

On to `NCC1Cc2cc(F)cc(-c3c(Cl)cccc3Cl)c2O1` (centres unmarked) [Compound 1, (7-(2,6-dichlorophenyl)-5-fluoro-2,3-dihydrobenzofuran-2-yl)methanamine], for which the “reversal of the hyperactivity produced by cocaine” value (0.1 mg/kg sc + cocaine 3 mg/kg ip, FIG. 1) is given as “completely reversed”. Under “0.1 mg/kg sc + vehicle”, the “effect on locomotor activity alone” value is given as “no effect”.
